Test results reported in patent US12116357B2, “Heteroaryl-triazole and heteroaryl-tetrazole compounds as pesticides” (Bayer Aktiengesellschaft, priority 2018, dated 2024).
Where two headings read alike, the source gives them in different places.

Experiments:
Myzus persicae = Myzus persicae oral test; type: in vivo; details: 120 h
Description: • Solvent: 100 parts by weight acetone
To produce a suitable preparation of active compound, 1 part by weight of active compound is mixed with the stated amount of solvent, and the concentrate is diluted with water to the desired concentration. 50 μl compound solution is filled in microtiter plates and 150 μl IPL41 insect medium (33%+15% sugar) is added to obtain a total volume of 200 μl per well. Afterwards the plates are sealed with parafilm through which a mixed population of the green peach aphid (Myzus persicae) can suck on the compound preparation.
After 5 days mortality in % is determined. 100% means all aphids have been killed and 0% means none of the aphids have been killed.

[1] = log P by HPLC on reversed phase columns (EEC directive 79/831 Annex V.A8); type: physicochemical; details: LC-UV, neutral range; for chromatographic logP: reversed phase HPLC column
[2] = 0.001 molar ammonium acetate in water and acetonitrile (table footnote), read-out: LogP^[a]

Structure (SMILES)	chromatographic logP [1, 2]	other results
CC(c1ncnn1-c1ncccn1)N(CC1CCCO1)C(=O)c1cc(Cl)cc(C(F)(F)F)c1 (stereo not shown) [Example I-012]		mortality at 20 ppm (Myzus persicae): 100%
CC(NCc1ccccn1)c1ncnn1-c1ncccn1 (stereo not shown) [a-001, N-(pyridin-2-ylmethyl)-1-[1-(pyrimidin-2-yl)-1H-1,2,4-triazol-5-yl]ethanamine]	0.72	chromatographic logP ([1]; 0.001 molar ammonium acetate in water and acetonitrile, read-out: log P^[b]): 0.77
CC(NC1CC1)c1ncnn1-c1ncccn1 (stereo not shown) [a-002]	0.75	
CC(NCC1CCOCC1)c1ncnn1-c1ncccn1 (stereo not shown) [a-003]	0.85	
CC(NCC1CCCC1)c1ncnn1-c1ncccn1 (stereo not shown) [a-004]	1.67	
CC(NCC1(c2ccccc2)CC1)c1ncnn1-c1ncccn1 (stereo not shown) [a-005]	1.9	
COCCNC(C)c1ncnn1-c1ncccn1 (stereo not shown) [a-006]	0.52	
CC(NCC1CSC1)c1ncnn1-c1ncccn1 (stereo not shown) [a-007]	1.12	
CC(NCC1CS(=O)(=O)C1)c1ncnn1-c1ncccn1 (stereo not shown) [a-008]	0.51	
CC(NCCc1ccc(F)cc1)c1ncnn1-c1ncccn1 (stereo not shown) [a-009]	1.62	
CC(NCC1(C)CC1)c1ncnn1-c1ncccn1 (stereo not shown) [a-010]	1.73	
CC(NCc1ncccn1)c1ncnn1-c1ncccn1 (stereo not shown) [a-011]	0.38	
CC(NCC1CCCO1)c1ncnn1-c1ncccn1 (stereo not shown) [a-012]	0.8	
CC(NCC1CCOC1)c1ncnn1-c1ncccn1 (stereo not shown) [a-013]	0.66	
CC(NCc1ccncc1)c1ncnn1-c1ncccn1 (stereo not shown) [a-014]	0.53	
CC(NCC1CCOC1)c1ncnn1-c1ncccn1 (stereo not shown) [a-015]		LogP^[a] ([1]; 0.001 molar ammonium acetate in water and acetonitrile (table footnote)): 0.66
CC(NCC1CCCCC1)c1ncnn1-c1ncccn1 (stereo not shown) [a-016]	2.03	
CSCCNC(C)c1ncnn1-c1ncccn1 (stereo not shown) [a-017]	0.92	
CC(NCc1ccc(C#N)cc1)c1ncnn1-c1ncccn1 (stereo not shown) [a-018]	1.35	
CC(NCc1cccnc1)c1ncnn1-c1ncccn1 (stereo not shown) [a-019]	0.68	
COc1ccc(CNC(C)c2ncnn2-c2ncccn2)cc1 (stereo not shown) [a-020]	1.41	
CC(NC1COC1)c1ncnn1-c1ncccn1 (stereo not shown) [a-021]	0.26	
CC(NCC1OCCO1)c1ncnn1-c1ncccn1 (stereo not shown) [a-022]	0.53	
CC(NC1CSC1)c1ncnn1-c1ncccn1 (stereo not shown) [a-023]	0.87	
CONC(C)c1ncnn1-c1ncccn1 (stereo not shown) [a-024]	0.42	
CSCCNC(C)c1ncnn1-c1ccc(C#N)cn1 (stereo not shown) [a-025]	1.65	
CC(NCCSC(F)(F)F)c1ncnn1-c1ccc(C#N)cn1 (stereo not shown) [a-026]	2.51	
